{"source": "patent US20210069354A1", "about": "“METHOD OF TRANSPORTING AN AGENT ACROSS BLOOD-BRAIN, BLOOD-COCHLEAR OR BLOOD-CEREBROSPINAL FLUID BARRIER” (Oklahoma Medical Research Foundation, priority 2015, published 2021)", "origin": "cited, not measured here", "settings": "normal brain", "data": [{"smiles": "O=C([O-])CN(CCN(CC(=O)[O-])CC(=O)O)CCN(CC(=O)[O-])CC(=O)O.[Gd+3]", "note": "[Gd-DTPA, gadolinium diethylene triamine penta acetic acid]", "values": [{"measurement": "crossing of the BBB", "value": "does not cross the BBB"}]}]}
